This note sets out measurements from ChEMBL document CHEMBL1128720, “N-[(1-butyl-4-piperidinyl)methyl]-3,4dihydro-2H-[1,3]oxazino[3,2- a]indole10-carboxamide hydrochloride: the first potent and selective 5-HT4 receptor antagonist amide with oral activity” (J Med Chem, 1995).

Where only a bound is given, the exact number is not on record here.

Experiment [1] concerns the target 5-hydroxytryptamine receptor 4 (Cavia porcellus, UniProt O70528). Description: Ability to antagonize 5-HT-evoked contractions mediated through 5-hydroxytryptamine 4 receptor activation in the guinea pig distal colon LMMP. It counts as tissue-based.
The target of experiment [2] is T1, 5-hydroxytryptamine receptor 1A (Homo sapiens, UniProt P08908).
T1 sequence (P08908 whole entry): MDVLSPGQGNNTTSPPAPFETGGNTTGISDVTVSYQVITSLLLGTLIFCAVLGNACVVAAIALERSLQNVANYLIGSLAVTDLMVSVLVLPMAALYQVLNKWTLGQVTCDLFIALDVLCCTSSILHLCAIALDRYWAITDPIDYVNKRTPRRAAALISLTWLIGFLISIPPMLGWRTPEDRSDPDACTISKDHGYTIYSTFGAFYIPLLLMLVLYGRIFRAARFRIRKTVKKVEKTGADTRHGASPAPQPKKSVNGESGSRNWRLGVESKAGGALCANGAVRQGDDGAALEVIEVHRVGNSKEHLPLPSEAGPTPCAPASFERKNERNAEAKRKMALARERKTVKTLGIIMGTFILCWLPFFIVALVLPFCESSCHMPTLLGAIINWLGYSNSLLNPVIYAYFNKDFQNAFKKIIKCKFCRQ
Description: Binding affinity was determined against 5-hydroxytryptamine 1A receptor. On the set-up: species or system Cavia porcellus.

The target in experiment [3] is 5-hydroxytryptamine receptor 2A (Homo sapiens, UniProt P28223). The experiment is described as follows: (§1) Binding affinity was determined against 5-hydroxytryptamine 2A receptor. More on the design: species or system Cavia porcellus.
The nature of experiment [4]: as §1. On the set-up: species or system Cavia porcellus.
The target of experiment [5] is D(2) dopamine receptor (Homo sapiens, UniProt P14416). The experiment is described as follows: Binding affinity was determined by standard competitive displacement of [125I]iodosulpride using Dopamine receptor D2 cloned human receptors expressed in CHO cells. A general note: Displacement assays read how much labelled ligand stays bound in the presence of the test substance.

Experiment [6] has as its target D(3) dopamine receptor (Homo sapiens, UniProt P35462). Description: Binding affinity was determined against Dopamine receptor D3 determined using cloned human receptors expressed in CHO cells radiolabeled with [125I]- iodosulpride. Type of experiment: cell-based.
Experiment [7] addresses Histamine H1 receptor (Cavia porcellus, UniProt P31389). The experiment is described as follows: Binding affinity was determined against H1 receptor.
Experiment [8] in a line: Binding affinity was determined against 5-hydroxytryptamine 1D receptor.

Chain of 5-hydroxytryptamine receptor 4 (O70528 whole entry): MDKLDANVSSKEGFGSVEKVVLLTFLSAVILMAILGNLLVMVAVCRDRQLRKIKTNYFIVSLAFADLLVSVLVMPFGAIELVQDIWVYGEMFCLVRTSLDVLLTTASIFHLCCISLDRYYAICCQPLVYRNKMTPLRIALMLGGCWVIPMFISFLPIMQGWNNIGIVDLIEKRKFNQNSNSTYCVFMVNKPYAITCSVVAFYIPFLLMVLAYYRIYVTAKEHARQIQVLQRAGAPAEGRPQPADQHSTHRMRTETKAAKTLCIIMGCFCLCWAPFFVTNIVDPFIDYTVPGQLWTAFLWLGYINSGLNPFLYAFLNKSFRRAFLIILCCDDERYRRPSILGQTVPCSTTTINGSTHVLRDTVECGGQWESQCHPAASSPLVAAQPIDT
Chain of D(3) dopamine receptor (P35462 whole entry): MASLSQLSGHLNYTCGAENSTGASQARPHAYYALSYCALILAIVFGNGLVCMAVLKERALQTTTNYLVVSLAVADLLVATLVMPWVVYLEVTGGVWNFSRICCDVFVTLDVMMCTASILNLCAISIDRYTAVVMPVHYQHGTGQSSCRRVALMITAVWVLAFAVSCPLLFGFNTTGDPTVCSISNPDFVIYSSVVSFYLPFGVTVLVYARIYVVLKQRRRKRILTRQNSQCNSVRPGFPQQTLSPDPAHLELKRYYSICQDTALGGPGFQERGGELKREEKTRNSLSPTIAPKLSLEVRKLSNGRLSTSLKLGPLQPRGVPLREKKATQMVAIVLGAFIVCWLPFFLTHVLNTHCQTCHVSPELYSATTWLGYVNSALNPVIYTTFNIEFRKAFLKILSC
Chain of D(2) dopamine receptor (P14416 whole entry): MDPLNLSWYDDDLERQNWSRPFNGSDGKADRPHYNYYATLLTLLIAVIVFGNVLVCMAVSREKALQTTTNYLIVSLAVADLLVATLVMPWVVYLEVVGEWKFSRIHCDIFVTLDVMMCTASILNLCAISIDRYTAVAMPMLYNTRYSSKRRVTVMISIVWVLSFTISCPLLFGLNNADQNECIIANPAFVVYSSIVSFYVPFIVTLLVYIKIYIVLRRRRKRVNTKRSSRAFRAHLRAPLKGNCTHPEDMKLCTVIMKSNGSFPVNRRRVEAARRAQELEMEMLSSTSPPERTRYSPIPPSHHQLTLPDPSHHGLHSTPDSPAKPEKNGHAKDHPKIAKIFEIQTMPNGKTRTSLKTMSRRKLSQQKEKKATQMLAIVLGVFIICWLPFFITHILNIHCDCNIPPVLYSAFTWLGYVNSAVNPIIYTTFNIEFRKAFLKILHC
Chain of Histamine H1 receptor (P31389 whole entry): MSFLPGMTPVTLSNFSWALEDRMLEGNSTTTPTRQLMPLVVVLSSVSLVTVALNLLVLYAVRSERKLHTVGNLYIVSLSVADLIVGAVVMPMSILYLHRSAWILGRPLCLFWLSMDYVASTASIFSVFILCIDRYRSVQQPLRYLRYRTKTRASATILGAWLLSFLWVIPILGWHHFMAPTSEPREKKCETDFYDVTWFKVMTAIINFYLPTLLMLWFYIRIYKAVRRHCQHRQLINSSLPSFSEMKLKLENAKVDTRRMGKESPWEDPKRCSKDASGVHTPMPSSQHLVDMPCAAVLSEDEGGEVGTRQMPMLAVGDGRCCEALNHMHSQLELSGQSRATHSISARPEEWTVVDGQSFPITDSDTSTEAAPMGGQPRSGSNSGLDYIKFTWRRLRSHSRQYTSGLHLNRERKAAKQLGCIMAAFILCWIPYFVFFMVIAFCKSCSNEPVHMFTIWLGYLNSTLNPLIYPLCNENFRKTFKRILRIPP
Chain of 5-hydroxytryptamine receptor 2A (P28223 whole entry): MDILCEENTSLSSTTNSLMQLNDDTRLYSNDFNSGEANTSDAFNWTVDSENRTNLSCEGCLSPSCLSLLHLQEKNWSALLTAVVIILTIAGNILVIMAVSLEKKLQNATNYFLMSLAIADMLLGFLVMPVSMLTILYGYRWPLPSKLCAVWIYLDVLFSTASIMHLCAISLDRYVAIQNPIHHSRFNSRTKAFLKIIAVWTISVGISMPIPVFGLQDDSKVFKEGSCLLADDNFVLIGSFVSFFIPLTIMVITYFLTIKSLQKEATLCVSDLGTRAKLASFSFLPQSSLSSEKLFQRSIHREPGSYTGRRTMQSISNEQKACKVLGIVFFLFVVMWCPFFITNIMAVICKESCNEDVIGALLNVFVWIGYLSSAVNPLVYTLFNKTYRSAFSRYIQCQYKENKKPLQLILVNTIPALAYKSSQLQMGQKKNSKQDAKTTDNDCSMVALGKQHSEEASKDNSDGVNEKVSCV

One may read the IC50 as the concentration that inhibits the measured activity by half. A high value points to weaker potency. Regarding `CCCCN1CCC(COC(=O)c2c(OC)[nH]c3ccccc23)CC1`, inhibition in experiment [1] was half-maximal at 0.1 nM (IC50).

For `CCCCN1CCC(CNC(=O)c2c3n(c4ccccc24)CCCCO3)CC1`, in experiment [1], the IC50 is 7.94 nM.

`CCCCN1CCC(CNC(=O)c2c[nH]c3ccccc23)CC1` had an IC50 in experiment [1] of 200 nM.

Turning to `CCCCN1CCC(CNC(=O)c2c3n(c4ccccc24)CCO3)CC1`, inhibition in experiment [1] was half-maximal at 15.8 nM (IC50). This IC50 is about 13-fold lower than that of the compound before.

In experiment [1], `CCCCN1CCC(CNC(=O)c2c(OC)[nH]c3ccccc23)CC1` had an IC50 of 79.4 nM.

As a reminder, the Ki is the dissociation constant of the complex between target and ligand, obtained from inhibition or displacement. `CCCCN1CCC(CNC(=O)c2c3n(c4ccccc24)CCCO3)CC1` [PIBOSEROD]: the inhibition constant (Ki) in experiment [2] was above 10000 nM; in experiment [3] it was above 1000 nM; in experiment [5], above 1000 nM; in experiment [6], above 1000 nM; in experiment [7] it was above 1000 nM; in experiment [8] it was above 10000 nM. Further, the Log Ki in experiment [4] is above -6.
